# Assay results taken from patent US12569543B2, “Semaglutide in cardiovascular conditions” (Novo Nordisk A/S, priority 2016, dated 2026).
# Tested on: human subjects with type 2 diabetes
# Test: Long-term randomised, double-blind, placebo-controlled cardiovascular outcomes trial with semaglutide
# [1] = Table 4, coronary and peripheral, semaglutide arms
# [2] = Table 4, individual component of MACE, semaglutide arms
# [3] = Table 4, individual component of MACE, semaglutide vs placebo, Cox model
# [4] = Table 4, MACE incl. revascularisation, hospitalisation for UAP and heart failure, semaglutide arms
# [5] = Table 4, semaglutide vs placebo, Cox model
# [6] = Table 5, under first MACE (CV death, non-fatal MI, non-fatal stroke), semaglutide arms
# [7] = Table 5, MACE = cardiovascular death, non-fatal MI, non-fatal stroke, all subjects, semaglutide arms
# [8] = Table 5 subgroup BMI >30 kg/m^2, semaglutide arms
# [9] = Table 5 subgroup BMI ≤30 kg/m^2, semaglutide arms
# [10] = Table 5 subgroup Ethnic origin: Asian, semaglutide arms
# [11] = Table 5 subgroup Ethnic origin: Black or African-American, semaglutide arms
# [12] = Table 5 subgroup Ethnic origin: Other, semaglutide arms
# [13] = Table 5 subgroup Ethnic origin: White, semaglutide arms
# [14] = Table 5 subgroup Heart failure NYHA class I or no heart failure, semaglutide arms
# [15] = Table 5 subgroup Heart failure NYHA class II or III, semaglutide arms
# [16] = Table 5 subgroup Sex: Female, semaglutide arms
# [17] = Table 5 subgroup Sex: Male, semaglutide arms
# Procedure: A long-term randomised, double-blind, placebo-controlled, four-armed parallel-group, multicentre, multi-national, safety and efficacy trial was carried out to evaluate cardiovascular and other long-term outcomes with semaglutide in 3,297 human subjects with type 2 diabetes.
# The subjects were randomised to receive once weekly treatment doses of 0.5 mg semaglutide, 1.0 mg semaglutide, or volume-matched placebo, as an add-on to their standard-of-care treatment, wherein administration started with an initial dose escalation step at 0.25 mg semaglutide once weekly for 4 weeks, and for the 1.0 mg semaglutide group an additional 4 week period at 0.5 mg semaglutide once weekly, or their volume-matched placebo, as shown in Table 1. Additional glucose-lowering medications were allowed to be added to the anti-diabetic regimen to maintain target glycaemic control at the discretion of investigator.
# Semaglutide was administered in the form of an aqueous solution comprising semaglutide or placebo, both using a 3 ml disposable pen-injector. This pen-injector was identical for the semaglutide and placebo administrations. This aqueous solution contained 1.34 mg/ml semaglutide, 1.42 mg/ml disodium phosphate dihydrate, 14.0 mg/ml propylene glycol, 5.5 mg/ml phenol, at pH 7.40.
# Injections were administered in the thigh, abdomen or upper arm, at any time of day irrespective of meals. The injections were administered on the same day of the week during the trial.
# In this trial, “clinical evidence of cardiovascular disease” was present when the subject fulfilled at least one criterion selected from the group consisting of a) to h): • a) prior myocardial infarction, • b) prior stroke or transient ischaemic attack, • c) prior coronary, carotid or peripheral arterial revascularisation, • d) >50% stenosis on angiography or imaging of coronary, carotid or lower extremity arteries, • e) history of symptomatic coronary heart disease (documented by e.g. positive exercise stress test or any cardiac imaging or unstable angina with ECG changes), • f) asymptomatic cardiac ischemia (e.g. documented by positive nuclear imaging test or exercise test or stress echo or any cardiac imaging), • g) heart failure New York Heart Association (NYHA) class and • h) chronic renal impairment (documented (prior to screening) by estimated glomerular filtration rate (eGFR)<60 mL/min/1.73 m^2 per MDRD).
# In this trial, “subclinical evidence of cardiovascular disease” was present when the subject fulfilled at least one criterion selected from the group consisting of i) to l): • i) persistent microalbuminuria (30-299 mg/g) or proteinuria, • j) hypertension and left ventricular hypertrophy by ECG or imaging, • k) left ventricular systolic or diastolic dysfunction by imaging, and • l) ankle/brachial index<0.9.
# The results of this trial may be presented herein as a number or fraction of subjects experiencing an event. […] The term “hazard ratio” (also referred to as “HR”) as used herein means the instantaneous risk ratio of experiencing an event when administered semaglutide compared to placebo which are the two treatments in this trial. An upper limit of the 95% confidence interval (CI) for the HR of less than 1.00 means that the estimated treatment ratio between semaglutide and placebo with respect to the event of interest is statistically significant in favour of semaglutide on a 5% significance level.
substance,measurement,setting,value
"N^6.26-{18-[N-(17-carboxy-heptadecanoyl)-L-γ-glutamyl]-10-oxo-3,6,12,15-tetraoxa-9,18-diazaoctadecanoyl}-[8-(2-amino-2-propanoic acid),34-L-arginine]human glucagon-like peptide 1(7-37) [Semaglutide]",Time to first non-fatal myocardial infarction (Kaplan-Meier plot),"FIG. 1, after a certain period of chronic treatment, vs placebo",particularly good effect
same,Time to first revascularisation (Kaplan-Meier plot),"FIG. 2, after a certain period of chronic treatment, vs placebo",particularly good effect
same,"Revascularisation, N subjects with at least one event",[1],83
same,"Revascularisation, percentage of subjects with at least one event",[1],5.0%
same,"Revascularisation, hazard ratio","Table 4, coronary and peripheral, semaglutide vs placebo, Cox model",0.65
same,"Cardiovascular death, N subjects with event",[2],44
same,"Cardiovascular death, percentage of subjects with event",[2],2.7%
same,"Myocardial infarction, non-fatal, N subjects with at least one event",[2],47
same,"Myocardial infarction, non-fatal, percentage of subjects with at least one event",[2],2.9%
same,"Stroke, non-fatal, N subjects with at least one event",[2],27
same,"Stroke, non-fatal, percentage of subjects with at least one event",[2],1.6%
same,"Cardiovascular death, hazard ratio",[3],0.98
same,"Myocardial infarction, non-fatal, hazard ratio",[3],0.74
same,"Stroke, non-fatal, hazard ratio",[3],0.61
same,"Time to first MACE, hazard ratio","Table 4, MACE = CV death, non-fatal MI, non-fatal stroke, revascularisation, hospitalisation for UAP or heart failure, semaglutide vs placebo, Cox model",0.74
same,"First MACE, N subjects experiencing at least one event",[4],199
same,"First MACE, percentage of subjects experiencing at least one event",[4],12.1%
same,"Coronary revascularisation, N subjects with at least one event","Table 4, semaglutide arms",70
same,"Coronary revascularisation, percentage of subjects with at least one event","Table 4, semaglutide arms",4.2%
same,"Hospitalisation for UAP, N subjects with at least one event","Table 4, semaglutide arms",22
same,"Hospitalisation for UAP, percentage of subjects with at least one event","Table 4, semaglutide arms",1.3%
same,"Hospitalisation for heart failure, N subjects with at least one event","Table 4, semaglutide arms",59
same,"Hospitalisation for heart failure, percentage of subjects with at least one event","Table 4, semaglutide arms",3.6%
same,"Peripheral revascularisation, N subjects with at least one event","Table 4, semaglutide arms",16
same,"Peripheral revascularisation, percentage of subjects with at least one event","Table 4, semaglutide arms",1.0%
same,"Coronary revascularisation, hazard ratio",[5],0.68
same,"Hospitalisation for UAP, hazard ratio",[5],0.82
same,"Hospitalisation for heart failure, hazard ratio",[5],1.11
same,"Peripheral revascularisation, hazard ratio",[5],0.63
same,"Cardiovascular death, N subjects",[6],37
same,"Cardiovascular death, percentage of subjects",[6],2.2%
same,"Myocardial infarction, non-fatal, N subjects",[6],46
same,"Myocardial infarction, non-fatal, percentage of subjects",[6],2.8%
same,"Stroke, non-fatal, N subjects",[6],25
same,"Stroke, non-fatal, percentage of subjects",[6],1.5%
same,"First MACE, N subjects experiencing at least one event",[7],108
same,"First MACE, percentage of subjects experiencing at least one event",[7],6.6%
same,"Time to first MACE, hazard ratio","Table 5, MACE = cardiovascular death, non-fatal MI, non-fatal stroke, all subjects, semaglutide vs placebo, Cox model",0.74
same,"Time to first MACE, hazard ratio","Table 5 subgroup BMI >30 kg/m^2, MACE = CV death, non-fatal MI, non-fatal stroke, vs placebo",0.84
same,"First MACE, N subjects with at least one event",[8],69
same,"First MACE, percentage of subjects with at least one event",[8],6.6%
same,"Time to first MACE, hazard ratio","Table 5 subgroup BMI ≤30 kg/m^2, MACE = CV death, non-fatal MI, non-fatal stroke, vs placebo",0.58
same,"First MACE, N subjects with at least one event",[9],39
same,"First MACE, percentage of subjects with at least one event",[9],6.6%
same,"Time to first MACE, hazard ratio","Table 5 subgroup Ethnic origin: Asian, MACE = CV death, non-fatal MI, non-fatal stroke, vs placebo",0.58
same,"First MACE, N subjects with at least one event",[10],2
same,"First MACE, percentage of subjects with at least one event",[10],5.7%
same,"Time to first MACE, hazard ratio","Table 5 subgroup Ethnic origin: Black or African-American, MACE = CV death, non-fatal MI, non-fatal stroke, vs placebo",0.72
same,"First MACE, N subjects with at least one event",[11],5
same,"First MACE, percentage of subjects with at least one event",[11],4.6%
same,"Time to first MACE, hazard ratio","Table 5 subgroup Ethnic origin: Other, MACE = CV death, non-fatal MI, non-fatal stroke, vs placebo",0.46
same,"First MACE, N subjects with at least one event",[12],93
same,"First MACE, percentage of subjects with at least one event",[12],6.7%
same,"Time to first MACE, hazard ratio","Table 5 subgroup Ethnic origin: White, MACE = CV death, non-fatal MI, non-fatal stroke, vs placebo",0.76
same,"First MACE, N subjects with at least one event",[13],8
same,"First MACE, percentage of subjects with at least one event",[13],6.6%
same,"Time to first MACE, hazard ratio","Table 5 subgroup Heart failure NYHA class I or no heart failure, MACE = CV death, non-fatal MI, non-fatal stroke, vs placebo",0.64
same,"First MACE, N subjects with at least one event",[14],73
same,"First MACE, percentage of subjects with at least one event",[14],5.4%
same,"Time to first MACE, hazard ratio","Table 5 subgroup Heart failure NYHA class II or III, MACE = CV death, non-fatal MI, non-fatal stroke, vs placebo",1.03
same,"First MACE, N subjects with at least one event",[15],35
same,"First MACE, percentage of subjects with at least one event",[15],12.3%
same,"Time to first MACE, hazard ratio","Table 5 subgroup Sex: Female, MACE = CV death, non-fatal MI, non-fatal stroke, vs placebo",0.84
same,"First MACE, N subjects with at least one event",[16],35
same,"First MACE, percentage of subjects with at least one event",[16],5.5%
same,"Time to first MACE, hazard ratio","Table 5 subgroup Sex: Male, MACE = CV death, non-fatal MI, non-fatal stroke, vs placebo",0.68
same,"First MACE, N subjects with at least one event",[17],73
same,"First MACE, percentage of subjects with at least one event",[17],7.2%
same,"First MACE, N subjects with at least one event","Table 6, 0.5 mg semaglutide once weekly arm",59
same,"Time to first MACE, hazard ratio","Table 6, 0.5 mg semaglutide once weekly arm vs its placebo, MACE = CV death, non-fatal MI, non-fatal stroke",0.77
same,"First MACE, N subjects with at least one event","Table 6, 1.0 mg semaglutide once weekly arm",49
same,"Time to first MACE, hazard ratio","Table 6, 1.0 mg semaglutide once weekly arm vs its placebo, MACE = CV death, non-fatal MI, non-fatal stroke",0.71
same,Effect on reducing cardiovascular disease,"overall conclusion of the trial, more pronounced in some subgroups",surprisingly good effect on reducing cardiovascular disease
